No end group written: not given here.
Test: physchem
Details: water

Row | Sequence | solubility [µg/mL]
1 | EAKSSIAKHFSLWKSYADADIKNSENK [A] | 2000
2 | FHNSNSRILFNQENNNFMYS [B] | 2000

— PMC2949846 (Virology Journal, 2010)
